Starred links: 1 amine or outer side, 2 acyl side, 3 side chain; linkers in the order of their positions; H or OH if unused. Positions of bridges follow the written chain, without caps; N, C: chain ends. Non-standard residues stand in square brackets, D forms with d. Residues, ends and D or L forms follow the SMILES beside them. *: point of attachment. hPhe(3-Cl-4-CF3) = N[C@@H](CCc1ccc(C(F)(F)F)c(Cl)c1)C(=O)O; NMeDab(N,N-(CH2CF2CH2)) = CN[C@@H](CCN1CC(F)(F)C1)C(=O)O; hPhe(3-F,4-CF3) = N[C@@H](CCc1ccc(C(F)(F)F)c(F)c1)C(=O)O; hPhe(4-CF3) = N[C@@H](CCc1ccc(C(F)(F)F)cc1)C(=O)O; NMePhe(4-Cl) = CN[C@@H](Cc1ccc(Cl)cc1)C(=O)O; hPhe(4-Cl) = N[C@@H](CCc1ccc(Cl)cc1)C(=O)O; NMedβ3hAla = C[C@H](CC(=O)[*:2])N(C)[*:1]; Abu(4,4,4-F3) = N[C@@H](CC(F)(F)F)C(=O)O; NMeAla(cPent) = CN[C@@H](CC1CCCC1)C(=O)O; NMeGly(cPent) = CN[C@H](C(=O)O)C1CCCC1; Phe(3-I) = N[C@@H](Cc1cccc(I)c1)C(=O)O; Phe(3-Me) = Cc1cccc(C[C@H](N)C(=O)O)c1; Pro(4,4-F2) = O=C(O)[C@@H]1CC(F)(F)CN1; NMeCha = CN[C@@H](CC1CCCCC1)C(=O)O; NMeF = CN[C@@H](Cc1ccccc1)C(=O)O; NMeI = CC[C@H](C)[C@H](NC)C(=O)O; NMeD = CN[C@@H](CC(=O)O)C(=O)O; NMeL = CN[C@@H](CC(C)C)C(=O)O; NMeV = CN[C@H](C(=O)O)C(C)C; d(β3hA) = C[C@@H](N)CC(=O)O; NMeA = CN[C@@H](C)C(=O)O; NMeAib = CNC(C)(C)C(=O)O; Piperidide = C1CCN(*)CC1; Pra = C#CC[C@H](N)C(=O)O; Pyrrolidide = C1CCN(*)C1; dNMeA = CN[C@H](C)C(=O)O; Ac5c = NC1(C(=O)O)CCCC1; Aze = O=C(O)[C@@H]1CCN1; Ac4c = NC1(C(=O)O)CCC1; Sar = CNCC(=O)O
The compounds below were run against T1, Kras and SOS1 (biotin-tagged human Kras loaded with GDP, His-tagged human SOS1) (Homo sapiens, UniProt P01116, G12D) (assay: Protein-protein interaction inhibition between Kras and SOS1 (KrasGl2D-SOS PPI) using AlphaScreen). Conditions: AlphaScreen; biotin-tagged human Kras loaded with GDP, His-tagged human SOS1; read-out: KRAS G12D-SOS PPI IC50.
T1 construct: made in house; host or cells: E. coli (stated for Kras only)
T1 sequence (P01116 1-188 isoform P01116-2 G12D): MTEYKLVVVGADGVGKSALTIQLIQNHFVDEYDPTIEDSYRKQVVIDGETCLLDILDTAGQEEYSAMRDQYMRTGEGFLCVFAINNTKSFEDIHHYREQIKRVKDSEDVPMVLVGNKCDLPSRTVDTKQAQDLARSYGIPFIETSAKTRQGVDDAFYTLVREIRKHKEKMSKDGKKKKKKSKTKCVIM
Format: binding
Outline: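 Read-out is acceptor-bead light at 520-620 nm, arising when 680 nm-irradiated nickel donor beads pass singlet oxygen to streptavidin acceptors. The bead pair links His-tagged SOS1 with biotin-tagged, GDP-bound Kras from E. coli.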
For `CC[C@H](C)[C@@H]1NC(=O)[C@H](CC(C)C)N(C)C(=O)C[C@@H](C(=O)N(C)C)N(C)C(=O)[C@H](C2CCCC2)N(C)C(=O)[C@H](CC(F)(F)F)NC(=O)[C@H](CCN2CC(F)(F)C2)N(C)C(=O)[C@H](CCc2ccc(C(F)(F)F)c(Cl)c2)NC(=O)CN(C)C(=O)[C@H](CC2CCCCC2)N(C)C(=O)[C@@H]2CCN2C(=O)[C@H](C)N(C)C1=O` [Compound 104] ([NMeL]I[NMeA][Aze][NMeCha][Sar][hPhe(3-Cl-4-CF3)][NMeDab(N,N-(CH2CF2CH2))][Abu(4,4,4-F3)][NMeGly(cPent)][NMeD]-NMe2; lactam N-11), the IC50 was 28 nM.
`CC[C@H](C)[C@@H]1NC(=O)[C@H](C)NC(=O)C[C@@H](C(=O)N2CCCC2)NC(=O)[C@H](CC(C)C)N(C)C(=O)[C@H](Cc2ccccc2)N(C)C(=O)[C@H](CC(C)C)NC(=O)[C@H](CCc2ccc(C(F)(F)F)cc2)NC(=O)CN(C)C(=O)[C@H](Cc2ccc(Cl)cc2)N(C)C(=O)CN(C)C(=O)CN(C)C1=O` [Compound 989] (AI[Sar][Sar][NMePhe(4-Cl)][Sar][hPhe(4-CF3)]L[NMeF][NMeL]D-Pyrrolidide; lactam N-11) showed an IC50 of 34 nM.
`CC[C@H](C)[C@@H]1NC(=O)[C@H](CC(C)C)N(C)C(=O)C[C@@H](C(=O)N2CCCC2)N(C)C(=O)[C@H](CC(C)C)NC(=O)C(C)(C)N(C)C(=O)[C@H](CC(C)C)NC(=O)[C@H](CCc2ccc(C(F)(F)F)c(F)c2)NC(=O)CN(C)C(=O)[C@H](CC2CCCCC2)N(C)C(=O)CN(C)C(=O)CN(C)C1=O` [Compound 312] ([NMeL]I[Sar][Sar][NMeCha][Sar][hPhe(3-F,4-CF3)]L[NMeAib]L[NMeD]-Pyrrolidide; lactam N-11) showed an IC50 of 1 nM.
For `C#CC[C@@H]1NC(=O)[C@H](Cc2cccc(I)c2)NC(=O)CN(C)C(=O)[C@H](Cc2ccc(Cl)cc2)N(C)C(=O)[C@@H]2CCN2C(=O)[C@H](C)N(C)C(=O)[C@H]([C@@H](C)CC)NC(=O)[C@H](CC(C)C)N(C)C(=O)C[C@@H](C(=O)N2CCCCC2)N(C)C(=O)[C@H](CC(C)C)NC(=O)C(C)(C)N(C)C1=O` [Compound 1428] ([NMeL]I[NMeA][Aze][NMePhe(4-Cl)][Sar][Phe(3-I)][Pra][NMeAib]L[NMeD]-Piperidide; lactam N-11), the IC50 was 42 nM.
`CC[C@H](C)[C@@H]1NC(=O)[C@H](C)N(C)C(=O)C[C@@H](C)NC(=O)[C@H](C(C)C)N(C)C(=O)C2(CCCC2)NC(=O)[C@@H]2CCCN2C(=O)[C@H](CCc2ccc(C(F)(F)F)c(Cl)c2)NC(=O)[C@@H](C)N(C)C(=O)[C@H](CC2CCCCC2)N(C)C(=O)[C@@H]2CCN2C(=O)[C@H](Cc2ccccc2)N(C)C1=O` [Compound 2019] (cyclo([Ac5c][NMeV][d(β3hA)][NMeA]I[NMeF][Aze][NMeCha][dNMeA][hPhe(3-Cl-4-CF3)]P)) was tested, and the IC50 was 110 nM.
Work on `CC[C@H](C)[C@@H]1NC(=O)[C@H](C)N(C)C(=O)C[C@@H](C(=O)N2CCCC2)NC(=O)[C@H](C(C)C)N(C)C(=O)[C@H](Cc2ccccc2)N(C)C(=O)[C@H](Cc2ccccc2)NC(=O)[C@H](Cc2cccc(C)c2)NC(=O)CN(C)C(=O)[C@H](Cc2ccc(Cl)cc2)N(C)C(=O)CN(C)C(=O)CN(C)C1=O` [Compound 467] ([NMeA]I[Sar][Sar][NMePhe(4-Cl)][Sar][Phe(3-Me)]F[NMeF][NMeV]D-Pyrrolidide; lactam N-11) yielded an IC50 of 200 nM.
`CC[C@H](C)[C@@H]1NC(=O)[C@H](CC(C)C)N(C)C(=O)C[C@@H](C(=O)N2CCCCC2)N(C)C(=O)[C@H](C(C)C)N(C)C(=O)C2(CCCC2)NC(=O)[C@@H]2CCCN2C(=O)[C@H](CCc2ccc(Cl)cc2)NC(=O)CN(C)C(=O)[C@H](CC2CCCC2)N(C)C(=O)CN(C)C(=O)CN(C)C1=O` [Compound 167] ([NMeL]I[Sar][Sar][NMeAla(cPent)][Sar][hPhe(4-Cl)]P[Ac5c][NMeV][NMeD]-Piperidide; lactam N-11) gave an IC50 of 58 nM.
For `CC[C@H](C)[C@@H]1NC(=O)[C@H](CC(C)C)N(C)C(=O)C[C@@H](C(=O)N2CCCC2)N(C)C(=O)[C@H]([C@@H](C)CC)N(C)C(=O)C2(CCCC2)NC(=O)[C@@H]2CCCN2C(=O)[C@H](CCc2ccc(C(F)(F)F)c(Cl)c2)NC(=O)CN(C)C(=O)[C@H](CC2CCCCC2)N(C)C(=O)CN(C)C(=O)CN(C)C1=O` [Compound 1662] ([NMeL]I[Sar][Sar][NMeCha][Sar][hPhe(3-Cl-4-CF3)]P[Ac5c][NMeI][NMeD]-Pyrrolidide; lactam N-11), the IC50 was 0.65 nM.
With `CC[C@H](C)[C@@H]1NC(=O)[C@H](CC(C)C)N(C)C(=O)C[C@@H](C)N(C)C(=O)[C@H]([C@@H](C)CC)N(C)C(=O)C2(CCC2)NC(=O)[C@@H]2CC(F)(F)CN2C(=O)[C@H](CCc2ccc(C(F)(F)F)c(Cl)c2)NC(=O)CN(C)C(=O)[C@H](CC2CCCCC2)N(C)C(=O)CN(C)C(=O)CN(C)C1=O` [Compound 891] (cyclo([Ac4c][NMeI][NMedβ3hAla][NMeL]I[Sar][Sar][NMeCha][Sar][hPhe(3-Cl-4-CF3)][Pro(4,4-F2)])) the IC50 was 9.6 nM.

From patent publication US12371454B2, “Cyclic peptide compound having Kras inhibitory action” (priority 2019, dated 2025)
